Source: PMC7684764 (Journal of medicinal chemistry, 2020)

Tests used:
[1] = test system: Salmonella typhimurium strain (with modified TA100); conditions: with liver S9 fraction activation
[2] = test system: MV4–11 cells; assay: Western blot analysis; assay type: cell-based; conditions: for increase in Hsp70 levels: 24 h, Figures 5A and C (MV4–11 and RS4;11); for FLT3 and STAT5 levels / pro-caspase3 cleavage: wt-p53 FLT3-ITD MV4–11, 24 h, Figure 5A
[3] = test system: HL60 cells; assay: Western blot analysis; assay type: cell-based; conditions: p53-null wt-FLT3 HL60, 24 h, Figure 5D
[4] = test system: MV4–11 cells; assay: Release profile by western blot after drug wash-out; assay type: cell-based; conditions: MV4–11, 3 h treatment, up to 6 h, Figure 3B
[5] = test system: MV4–11 cells; assay: Combination index; assay type: cell-based; conditions: MV4–11, 48 h, lower concentrations, Figure S8
[6] = test system: SR cell line; assay: Western blot analysis; assay type: cell-based; conditions: wt-p53 SR, 24 h, Figure S7
[7] = test system: NCI60 tumor cell lines; assay: NCI60 tumor cell lines screen, whole panel; assay type: cell-based; conditions: concentrations under 10 μM
[8] = test system: RS4;11 cells; assay: Western blot analysis; assay type: cell-based; conditions: wt-p53 wt-FLT3 RS4;11, 24 h; 13a 200 nM, panobinostat 100 nM, vorinostat 5000 nM
[9] = target: T1, APN (CD13, microsomal aminopeptidase) (Sus scrofa, UniProt P15145); assay: CD13 inhibition assay; assay type: biochemical, porcine; conditions: 13a 50 μM and 10 μM, Figure S4
T1 sequence (P15145 1-963): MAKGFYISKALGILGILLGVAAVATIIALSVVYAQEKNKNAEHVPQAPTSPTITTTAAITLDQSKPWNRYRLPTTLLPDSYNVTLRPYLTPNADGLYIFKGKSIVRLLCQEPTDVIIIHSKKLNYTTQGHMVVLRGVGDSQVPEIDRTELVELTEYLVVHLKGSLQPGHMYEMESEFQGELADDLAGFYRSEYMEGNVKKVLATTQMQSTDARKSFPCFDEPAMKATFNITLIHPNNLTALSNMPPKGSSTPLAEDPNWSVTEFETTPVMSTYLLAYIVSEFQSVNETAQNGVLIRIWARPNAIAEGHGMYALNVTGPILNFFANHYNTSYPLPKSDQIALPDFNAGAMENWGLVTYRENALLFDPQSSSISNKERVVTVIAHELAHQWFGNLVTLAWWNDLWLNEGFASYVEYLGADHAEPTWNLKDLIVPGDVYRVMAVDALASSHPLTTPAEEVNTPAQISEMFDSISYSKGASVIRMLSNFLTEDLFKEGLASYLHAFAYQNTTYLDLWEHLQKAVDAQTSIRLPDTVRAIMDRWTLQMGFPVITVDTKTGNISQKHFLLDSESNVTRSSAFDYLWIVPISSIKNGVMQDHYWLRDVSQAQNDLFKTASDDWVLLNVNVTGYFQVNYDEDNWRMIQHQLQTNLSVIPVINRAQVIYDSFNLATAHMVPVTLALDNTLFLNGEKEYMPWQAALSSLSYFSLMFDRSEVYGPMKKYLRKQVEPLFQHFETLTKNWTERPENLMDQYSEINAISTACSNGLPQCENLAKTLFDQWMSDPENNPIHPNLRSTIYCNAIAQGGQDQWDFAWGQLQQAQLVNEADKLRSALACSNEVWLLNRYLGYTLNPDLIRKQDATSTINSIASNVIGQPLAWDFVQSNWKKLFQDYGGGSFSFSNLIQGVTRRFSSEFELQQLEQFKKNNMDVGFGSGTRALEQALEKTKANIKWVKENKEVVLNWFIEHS

[10] = test system: MV4–11 cells; assay: EC50 analysis; assay type: cell-based; conditions: MV4–11, 50 μM
[11] = target: HDAC3 (Homo sapiens, UniProt O15379); assay: In vitro HDACs inhibition fluorescence assay; assay type: biochemical
[12] = target: HDAC1 (Homo sapiens, UniProt Q13547); assay: In vitro HDACs inhibition fluorescence assay; assay type: biochemical; conditions: IC50 curves after pre-incubation of 10, 30, 60 and 90 min, Figure 3A
Chain of HDAC1 (Q13547 whole entry): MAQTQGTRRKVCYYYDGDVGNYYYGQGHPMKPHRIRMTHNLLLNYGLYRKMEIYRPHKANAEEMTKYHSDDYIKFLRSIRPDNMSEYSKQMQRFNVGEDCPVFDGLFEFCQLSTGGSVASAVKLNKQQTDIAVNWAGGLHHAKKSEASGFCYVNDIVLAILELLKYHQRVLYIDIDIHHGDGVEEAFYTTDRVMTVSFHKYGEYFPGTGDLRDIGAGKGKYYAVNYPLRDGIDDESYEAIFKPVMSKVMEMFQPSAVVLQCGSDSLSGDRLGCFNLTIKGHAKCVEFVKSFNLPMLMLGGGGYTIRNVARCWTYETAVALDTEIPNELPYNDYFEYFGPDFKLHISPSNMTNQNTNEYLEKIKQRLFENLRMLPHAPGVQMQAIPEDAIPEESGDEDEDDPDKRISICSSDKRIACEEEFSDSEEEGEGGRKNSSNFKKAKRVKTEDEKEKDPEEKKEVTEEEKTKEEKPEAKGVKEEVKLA

Chain of HDAC3 (O15379 whole entry): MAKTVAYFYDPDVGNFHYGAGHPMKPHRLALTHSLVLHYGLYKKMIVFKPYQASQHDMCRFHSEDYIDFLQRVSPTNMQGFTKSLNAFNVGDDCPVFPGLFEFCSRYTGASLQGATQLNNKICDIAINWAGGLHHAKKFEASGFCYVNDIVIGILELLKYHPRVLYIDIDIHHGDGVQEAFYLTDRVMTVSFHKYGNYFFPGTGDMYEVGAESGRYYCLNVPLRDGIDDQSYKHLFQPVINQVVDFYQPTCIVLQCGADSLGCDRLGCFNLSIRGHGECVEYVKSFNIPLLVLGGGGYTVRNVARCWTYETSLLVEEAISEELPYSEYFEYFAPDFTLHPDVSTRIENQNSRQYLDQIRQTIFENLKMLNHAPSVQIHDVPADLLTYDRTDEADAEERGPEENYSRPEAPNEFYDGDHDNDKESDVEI
Chain of HDAC3 (Q9Y618 395-489 partner limits assumed): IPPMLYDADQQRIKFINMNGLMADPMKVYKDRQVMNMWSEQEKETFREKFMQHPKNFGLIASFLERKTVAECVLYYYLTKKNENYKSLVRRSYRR

SMILES: Nc1ccc2cc3ccccc3cc2c1 [2-aminoanthracene]
- mutagenicity, Mini-Ames [1]: Ames positive

SMILES: CCCNNC(=O)/C=C/c1ccc(CNCCc2c(C)[nH]c3ccccc23)cc1.O=C(O)C(F)(F)F [Compound 13a, (E)-2-(2-methyl-1H-indol-3-yl)-N-(4-(3-oxo-3-(2-propylhydrazinyl)prop-1-en-1-yl)benzyl)ethanaminium 2,2,2-trifluoroacetate]
- increase in Hsp70 levels [2]: not observed
- FLT3 and STAT5 levels [2]: down-regulate
- pro-caspase3 cleavage [2]: observed
- pro-caspase3 cleavage [3]: not cleaved
- acetylation of tubulin [4]: does not increase the acetylation of tubulin
- histone acetylation after removal of drug [4]: does not decrease within 6 h
- interaction of 13a with 17-AAG in anti-proliferation activity [5]: antagonized
- pro-caspase3 cleavage [6]: does not cleave
- number of the 60 cell lines with lethality under 10 μM [7]: 10
- mutagenicity, Mini-Ames [1]: not mutagenic
- cleavage of pro-caspase3 [8]: only observed at high dose
- inhibition of APN [9]: does not show any inhibition

SMILES: Cc1[nH]c2ccccc2c1CCNCc1ccc(/C=C/C(=O)NN(C)C)cc1.O=C(O)C(F)(F)F [Compound 26a, (E)-N-(4-(3-(2,2-dimethylhydrazinyl)-3-oxoprop-1-en-1-yl)benzyl)-2-(2-methyl-1H-indol-3-yl)ethanaminium 2,2,2-trifluoroacetate]
- effect on cell proliferation at 50 μM [10]: do not affect cell proliferation

SMILES: Cc1[nH]c2ccccc2c1CCNCc1ccc(/C=C/C(=O)NN2CCCC2)cc1.O=C(O)C(F)(F)F [Compound 26b, (E)-2-(2-methyl-1H-indol-3-yl)-N-(4-(3-oxo-3-(pyrrolidin-1-ylamino)prop-1-en-1-yl)benzyl)ethanaminium 2,2,2-trifluoroacetate]
- effect on cell proliferation at 50 μM [10]: do not affect cell proliferation

SMILES: Cc1[nH]c2ccccc2c1CCNCc1ccc(/C=C/C(=O)NN2CCCCC2)cc1.O=C(O)C(F)(F)F [Compound 26c, (E)-2-(2-methyl-1H-indol-3-yl)-N-(4-(3-oxo-3-(piperidin-1-ylamino)prop-1-en-1-yl)benzyl)ethanaminium 2,2,2-trifluoroacetate]
- effect on cell proliferation at 50 μM [10]: do not affect cell proliferation

SMILES: Cc1[nH]c2ccccc2c1CCNCc1ccc(/C=C/C(=O)NN(CCCO)CCCO)cc1.O=C(O)C(F)(F)F [Compound 30, (E)-N-(4-(3-(2,2-bis(3-hydroxypropyl)hydrazinyl)-3-oxoprop-1-en-1-yl)benzyl)-2-(2-methyl-1H-indol-3-yl)ethanaminium 2,2,2-trifluoroacetate]
- effect on cell proliferation at 50 μM [10]: do not affect cell proliferation

SMILES: Nc1ccccc1NC(=O)c1ccc(CNC(=O)OCc2cccnc2)cc1 [Entinostat, entinostat]
- pro-caspase3 cleavage [2]: observed

SMILES: CCCNNC(=O)c1ccc(CNC(=O)/C=C/c2ccccc2)cc1 [LP411]
- FLT3 and STAT5 levels [2]: down-regulate
- pro-caspase3 cleavage [2]: observed

SMILES: Cc1[nH]c2ccccc2c1CCNCc1ccc(/C=C/C(=O)NO)cc1 [Panobinostat]
- increase in Hsp70 levels [2]: observed
- pro-caspase3 cleavage [2]: observed
- acetylation of tubulin [4]: completely disappears after 30 min
- histone acetylation after removal of drug [4]: begins to decrease after 1 h
- on-kinetics, HDAC3 [11]: fast-on kinetics
- number of the 60 cell lines with lethality under 10 μM [7]: 18
- mutagenicity, Mini-Ames [1]: Ames positive
- cleavage of pro-caspase3 [8]: observed
- on-kinetics, HDAC1 [12]: fast-on kinetics
